The values below come from US12466822B2, “Heterocyclic compounds as immunomodulators” (Incyte Corporation, priority 2016, dated 2025).

Some results are limits rather than exact numbers.

This experiment deals with T1, PD-1/PD-L1 protein/protein interaction (recombinant human PD-L1 protein (19-238), recombinant human PD-1 protein (25-167)) (Homo sapiens, UniProt Q9NZQ7).
T1 construct: Recombinant human PD-L1 protein (19-238) with a His-tag at the C-terminus; purchased AcroBiosystems PD1-H5229 (PD-L1-His); PD1-H5257 (PD-1-Fc)
T1 sequence (Q9NZQ7 19-238): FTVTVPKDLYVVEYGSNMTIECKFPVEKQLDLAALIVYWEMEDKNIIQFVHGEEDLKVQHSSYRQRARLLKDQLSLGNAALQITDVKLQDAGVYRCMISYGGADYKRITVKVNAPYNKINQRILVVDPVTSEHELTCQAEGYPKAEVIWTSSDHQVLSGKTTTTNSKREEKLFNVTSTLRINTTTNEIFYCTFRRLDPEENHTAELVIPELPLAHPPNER
In words: PD-1/PD-L1 Homogeneous Time-Resolved Fluorescence (HTRF) Binding Assay. The following applies: 25° C., PBS buffer (pH 7.4), 40 minutes preincubation with inhibitors. The method, then:
The assays were conducted in a standard black 384-well polystyrene plate with a final volume of 20 μL. Inhibitors were first serially diluted in DMSO and then added to the plate wells before the addition of other reaction components. The final concentration of DMSO in the assay was 1%. The assays were carried out at 25° C. in the PBS buffer (pH 7.4) with 0.05% Tween-20 and 0.1% BSA. Recombinant human PD-L1 protein (19-238) with a His-tag at the C-terminus was purchased from AcroBiosystems (PD1-H5229). Recombinant human PD-1 protein (25-167) with Fc tag at the C-terminus was also purchased from AcroBiosystems (PD1-H5257). PD-L1 and PD-1 proteins were diluted in the assay buffer and 10 μL was added to the plate well. Plates were centrifuged and proteins were preincubated with inhibitors for 40 minutes. The incubation was followed by the addition of 10 μL of HTRF detection buffer supplemented with Europium cryptate-labeled anti-human IgG (PerkinElmer-AD0212) specific for Fc and anti-His antibody conjugated to SureLight®-Allophycocyanin (APC, PerkinElmer-AD0059H). After centrifugation, the plate was incubated at 25° C. for 60 min. before reading on a PHERAstar FS plate reader (665 nm/620 nm ratio). Final concentrations in the assay were […], 10 nM PD-L1, 1 nM europium anti-human IgG and 20 nM anti-His-Allophycocyanin. IC50 determination was performed by fitting the curve of percent control activity versus the log of the inhibitor concentration using the GraphPad Prism 5.0 software.
For orientation: Time-resolved FRET reads energy transfer from a long-lived donor to a nearby acceptor.
For orientation: IC50 means the point on the concentration scale where inhibition reaches its midpoint. In the case of `Cc1c(Nc2nccc3cc(CN4CC[C@H](O)C4)cnc23)cccc1-c1cccc(NC(=O)c2nc3c(n2C)CCN(C)C3)c1Cl` [Example 32, (S)—N-(2-chloro-3′-(3-((3-hydroxypyrrolidin-1-yl)methyl)-1,7-naphthyridin-8-ylamino)-2′-methylbiphenyl-3-yl)-1,5-dimethyl-4,5,6,7-tetrahydro-1H-imidazo[4,5-c]pyridine-2-carboxamide], the IC50 is at most 10 nM.
For `Cc1c(Nc2nccc3cc(CN4CC[C@@](C)(C(=O)O)C4)cnc23)cccc1-c1cccc(NC(=O)c2nc3c(n2C)CCN(C)C3)c1Cl` [Example 33, (R)-1-((8-(2′-chloro-3′-(1,5-dimethyl-4,5,6,7-tetrahydro-1H-imidazo[4,5-c]pyridine-2-carboxamido)-2-methylbiphenyl-3-ylamino)-1,7-naphthyridin-3-yl)methyl)-3-methylpyrrolidine-3-carboxylic acid] the value was at most 10 nM.
For `Cc1c(Nc2nccc3cc(CN4CC[C@@H](C(=O)O)C4)cnc23)cccc1-c1cccc(-c2nc3c(s2)CNCC3)c1C` [Example 34, (R)-1-((8-((2,2′-dimethyl-3′-(4,5,6,7-tetrahydrothiazolo[5,4-c]pyridin-2-yl)-[1,1′-biphenyl]-3-yl)amino)-1,7-naphthyridin-3-yl)methyl)pyrrolidine-3-carboxylic acid] the value was at most 10 nM; for `Cc1c(Nc2nccc3cc(CN4CC[C@@H](O)C4)cnc23)cccc1-c1cccc(-c2nc3c(s2)CNCC3)c1C` [Example 35, (R)-1-((8-((2,2′-dimethyl-3′-(4,5,6,7-tetrahydrothiazolo[5,4-c]pyridin-2-yl)-[1,1′-biphenyl]-3-yl)amino)-1,7-naphthyridin-3-yl)methyl)pyrrolidin-3-ol], at most 10 nM; for `Cc1c(Nc2nccc3cc(CN4CC[C@H](O)C4)cnc23)cccc1-c1cccc(-c2nc3c(s2)CNCC3)c1C` [Example 36, (S)-1-((8-((2,2′-dimethyl-3′-(4,5,6,7-tetrahydrothiazolo[5,4-c]pyridin-2-yl)-[1,1′-biphenyl]-3-yl)amino)-1,7-naphthyridin-3-yl)methyl)pyrrolidin-3-ol], at most 10 nM.
Regarding `Cc1c(Nc2nccc3cc(CN4CC[C@@H](O)C4)cnc23)cccc1-c1cccc(-c2nc3c(o2)CN(C(=O)CN(C)C)C3)c1C` [Example 37, (R)-2-(dimethylamino)-1-(2-(3′-((3-((3-hydroxypyrrolidin-1-yl)methyl)-1,7-naphthyridin-8-yl)amino)-2,2′-dimethyl-[1,1′-biphenyl]-3-yl)-4,6-dihydro-5H-pyrrolo[3,4-d]oxazol-5-yl)ethan-1-one], the 50% inhibitory concentration (IC50) was at most 10 nM.
For `Cc1c(Nc2nccc3cc(CN4CC[C@H](O)C4)cnc23)cccc1-c1cccc(-c2nc3c(o2)CN(C(=O)CN(C)C)C3)c1C` [Example 38, (S)-2-(dimethylamino)-1-(2-(3′-((3-((3-hydroxypyrrolidin-1-yl)methyl)-1,7-naphthyridin-8-yl)amino)-2,2′-dimethyl-[1,1′-biphenyl]-3-yl)-4,6-dihydro-5H-pyrrolo[3,4-d]oxazol-5-yl)ethan-1-one] the value was at most 10 nM; for `Cc1c(Nc2nccc3cc(CN4CC[C@@H](O)C4)cnc23)cccc1-c1cccc(-c2nc3c(o2)CN(C(=O)CN2CC(C(=O)O)C2)C3)c1C` [Example 39, (R)-1-(2-(2-(3′-((3-((3-hydroxypyrrolidin-1-yl)methyl)-1,7-naphthyridin-8-yl)amino)-2,2′-dimethyl-[1,1′-biphenyl]-3-yl)-4,6-dihydro-5H-pyrrolo[3,4-d]oxazol-5-yl)-2-oxoethyl)azetidine-3-carboxylic acid], at most 10 nM; for `Cc1c(Nc2nccc3cc(CN4CC[C@@H](O)C4)cnc23)cccc1-c1cccc(-c2nc3c(o2)CN(C(=O)CN2CC[C@H](C(=O)O)C2)C3)c1C` [Example 40, (S)-1-(2-(2-(3′-((3-(((R)-3-hydroxypyrrolidin-1-yl)methyl)-1,7-naphthyridin-8-yl)amino)-2,2′-dimethyl-[1,1′-biphenyl]-3-yl)-4,6-dihydro-5H-pyrrolo[3,4-d]oxazol-5-yl)-2-oxoethyl)pyrrolidine-3-carboxylic acid], at most 10 nM.
For `Cc1c(Nc2nccc3cc(CN4CC[C@@H](O)C4)cnc23)cccc1-c1cccc(-c2nc3c(o2)CN(C(=O)CN2CC[C@@H](C(=O)O)C2)C3)c1C` [Example 41, (R)-1-(2-(2-(3′-((3-(((R)-3-hydroxypyrrolidin-1-yl)methyl)-1,7-naphthyridin-8-yl)amino)-2,2′-dimethyl-[1,1′-biphenyl]-3-yl)-4,6-dihydro-5H-pyrrolo[3,4-d]oxazol-5-yl)-2-oxoethyl)pyrrolidine-3-carboxylic acid] the value was at most 10 nM; for `Cc1c(Nc2nccc3cc(CN4CC[C@@H](O)C4)cnc23)cccc1-c1cccc(-c2nc3c(o2)CN(C(=O)CN2CCCC[C@H]2C(=O)O)C3)c1C` [Example 42, (S)-1-(2-(2-(3′-((3-(((R)-3-hydroxypyrrolidin-1-yl)methyl)-1,7-naphthyridin-8-yl)amino)-2,2′-dimethyl-[1,1′-biphenyl]-3-yl)-4,6-dihydro-5H-pyrrolo[3,4-d]oxazol-5-yl)-2-oxoethyl)piperidine-2-carboxylic acid], at most 10 nM; for `Cc1c(COc2cc(OCc3cncc(C#N)c3)c(CN3CCCC[C@H]3C(=O)O)cc2Cl)cccc1-c1cccc(Nc2nccc3cc(CN4CC[C@@H](O)C4)cnc23)c1C` [Example 43, (S)-1-(5-chloro-2-((5-cyanopyridin-3-yl)methoxy)-4-((3′-((3-(((R)-3-hydroxypyrrolidin-1-yl)methyl)-1,7-naphthyridin-8-yl)amino)-2,2′-dimethyl-[1,1′-biphenyl]-3-yl)methoxy)benzyl)piperidine-2-carboxylic acid], at most 10 nM.
Regarding `Cc1c(COc2cc(OCc3cncc(C#N)c3)c(CN3CC[C@@H](C(=O)O)C3)cc2Cl)cccc1-c1cccc(Nc2nccc3cc(CN4CC[C@@H](O)C4)cnc23)c1C` [Example 44, (R)-1-(5-chloro-2-((5-cyanopyridin-3-yl)methoxy)-4-((3′-((3-(((R)-3-hydroxypyrrolidin-1-yl)methyl)-1,7-naphthyridin-8-yl)amino)-2,2′-dimethyl-[1,1′-biphenyl]-3-yl)methoxy)benzyl)pyrrolidine-3-carboxylic acid], the IC50 was at most 10 nM.
Regarding `Cc1c(Nc2nccc3cc(CN4CC[C@@](C)(C(=O)O)C4)cnc23)cccc1-c1cccc(NC(=O)c2nc3c(n2C)CCNC3)c1Cl` [Example 45, (R)-1-((8-(2′-Chloro-2-methyl-3′-(1-methyl-4,5,6,7-tetrahydro-1H-imidazo[4,5-c]pyridine-2-carboxamido)biphenyl-3-ylamino)-1,7-naphthyridin-3-yl)methyl)-3-methylpyrrolidine-3-carboxylic acid], the IC50 is at most 10 nM.
For the compound `Cc1c(NC(=O)c2nc3c(n2C)CCN(C)C3)cccc1-c1cccc(Nc2nccc3cc(CN4CC[C@@H](C(=O)O)C4)cnc23)c1C` [Example 46, (R)-1-((8-(3′-(1,5-dimethyl-4,5,6,7-tetrahydro-1H-imidazo[4,5-c]pyridine-2-carboxamido)-2,2′-dimethylbiphenyl-3-ylamino)-1,7-naphthyridin-3-yl)methyl)pyrrolidine-3-carboxylic acid], the IC50 was at most 10 nM.
With `Cc1c(Nc2nccc3cc(CN4CC[C@@H](O)C4)cnc23)cccc1-c1cccc(NC(=O)c2nc3c(n2C)CCN(C[C@H]2CC[C@H](C(=O)O)CC2)C3)c1Cl` [Example 47, trans-4-((2-(2-chloro-3′-(3-(((R)-3-hydroxypyrrolidin-1-yl)methyl)-1,7-naphthyridin-8-ylamino)-2′-methylbiphenyl-3-ylcarbamoyl)-1-methyl-6,7-dihydro-1H-imidazo[4,5-c]pyridin-5(4H)-yl)methyl)cyclohexanecarboxylic acid], the IC50 was at most 10 nM.
For `Cc1c(Nc2nccc3cc(CN4CC[C@@H](O)C4)cnc23)cccc1-c1cccc(NC(=O)c2nc3c(n2C)CCN(C[C@H]2CC[C@@H](C(=O)O)CC2)C3)c1Cl` [Example 48, cis-4-((2-(2-chloro-3′-(3-(((R)-3-hydroxypyrrolidin-1-yl)methyl)-1,7-naphthyridin-8-ylamino)-2′-methylbiphenyl-3-ylcarbamoyl)-1-methyl-6,7-dihydro-1H-imidazo[4,5-c]pyridin-5(4H)-yl)methyl)cyclohexanecarboxylic acid] the value was at most 10 nM; for `Cc1c(Nc2nccc3cc(CN4CCCC4)cnc23)cccc1-c1cccc(NC(=O)c2nc3c(n2C)CCN(C[C@H]2CC[C@@H](C(=O)O)CC2)C3)c1Cl` [Example 49, cis-4-((2-(2-chloro-2′-methyl-3′-(3-(pyrrolidin-1-ylmethyl)-1,7-naphthyridin-8-ylamino)biphenyl-3-ylcarbamoyl)-1-methyl-6,7-dihydro-1H-imidazo[4,5-c]pyridin-5(4H)-yl)methyl)cyclohexanecarboxylic acid], at most 10 nM.
